Data set [1] has as its system primary mouse B-cells from AID knockout mice (AID−/−). Description: viable cell counts (Trypan blue) of primary B-cells cultured with DIDS. It is filed as cell-based. Conditions: 0-150 μM DIDS. The procedure:
(§1) Primary mouse B-cells were isolated from spleens of adult C57BL/6J mice (AID+/+) and from AID knockout mice (AID−/−) (see Example 1 and 2). 1×10^^6 primary B-cells were seeded into tissue culture plates, stimulated with 1 μg/ml anti-CD40 antibodies (anti-CD40; BD Pharmingen; Cat. No. 553721) and 25 ng/ml IL-4 or with anti-CD40 alone on day 0 and day 2. 0, 50 μM, 100 μM or 150 μM of DIDS was added at time 0 and 2 days after culture initiation, when culture volumes were adjusted to accommodate cell growth. The cells were cultured over 6 days. The number of viable cells were counted after staining with Trypan blue using a hemacytometer on days 1, 2, 3, 4 and 6. In FIG. 7 the number of viable primary B-cells from C57BL/6J mice (AID+/+) and AID-knockout mice (AID−/−) after treatment with DIDS is shown.

Data set [2] concerns primary mouse B-cells from C57BL/6J mice (AID+/+). The data set is described as above. It is filed as cell-based. The procedure:
as §1

The test system of data set [3] is primary chronic lymphocytic leukemia (CLL) cells. Description: viable cell counts of primary human CLL cells treated with DIDS. It is filed as cell-based. Conditions: 150 μM or 600 μM DIDS, days 2, 4, 6, 8, relative to untreated control. Here is the method:
Blood samples (8-16 mL) from patients were collected via peripheral bleed into BD Vacutainer CPT tubes (BD, Franklin Lakes, N.J.), centrifuged to sequester red blood cells below the separation gel according to manufacturer instructions, and transported within 24 hours to the Jackson Laboratory. Upon receipt, peripheral blood mononuclear cells (PBMC) were isolated from samples according to manufacturer specifications. White blood cell (WBC) counts from 14 primary chronic lymphocytic leukemia (CLL) samples from human patients were calculated from complete blood count (CBC) with differentials. Calculated values were compared with empirical cell counts following cell separation and overnight shipping. […] The primary CLL samples (WBC) were diluted to standard concentration and 3.0×10^6 cells were seeded in cultures. Replicate cultures were supplemented with 0 μM (n=5), 150 μM DIDS (n=4), or 600 μM DIDS (n=2). Viable cell counts were determined by manual counting using a hemacytometer on days 2, 4, 6, and 8 of culture.

Data set [4] relates to primary wild-type mouse splenocytes. Kind of data set: radiosensitivity of primary splenocytes after exposure to DIDS (cell counts after 2.5 Gy). It is filed as cell-based. Particulars: Splenocyte, light or radiation study, 36 h, read-out: reduction in viability. The procedure:
To validate DIDS as a potential agent, and to confirm its DSB repair inhibitory activity, radiosensitivity of primary wild-type mouse splenocytes was measured after exposure to DIDS. A total of 2×10^6 splenocytes were suspended in medium with 0, 300 μM, 600 μM or 1000 μM DIDS, or in vehicle-only control, and immediately given 2.5 Gy ionizing irradiation using a ^137Cs irradiator (Shepard). Cells were then cultured in medium containing the same DIDS concentration, and cell counts were determined after 36 hours recovery time.

The subject of data set [5] is phospho-H2AX foci in mouse primary splenocytes (AID+/+ and AID−/−). Kind of data set: phospho-H2AX foci in activated splenocytes exposed to DIDS. It is filed as cell-based. Particulars: 150 micromolar DIDS. An excerpt: Mouse primary splenocytes isolated from 8-12 week old wild type (AID+/+) and AID-knockout (AID−/−) mice as described in Example 1 were exposed to 150 micromolar DIDS, and activated by anti-CD40 antibody plus interleukin-4, fixed and stained for the DNA break marker phospho-H2AX and for nuclear DNA using the fluorescent DNA staining dye 4′,6-diamidino-2-phenylindole (DAPI). In FIG. 16A the fraction of cells containing 0, 1-2, or greater than 2 phospho-H2AX positive foci was quantified for AID+/+ (filled bars) and AID−/− (open bars) cells. […] In FIG. 16B the proportion of phospho-H2AX positive cells (filled bars) versus phospho-H2AX negative cells (open bars) was quantified for AID+/+ in comparison to AID−/− cultures. […] In FIG. 16C the number of foci per cell was quantified for DIDS-treated AID+/+ (filled bars) versus AID−/− (open bars) cells. Data are expressed as the absolute number of cells (y-axis) harboring the indicated number of phosphor-H2AX foci (from 0 to >20; x-axis).

The subject of data set [6] is AID+/+ (C57BL/6) or AID−/− mice. Kind of data set: systemic DIDS treatment of DNP-KLH immunized mice. The format is in vivo. Here is the method:
To test the in vivo effectiveness of DIDS, either AID+/+ (C57BL/6) or AID−/− mice (Muramatsu et al. et al., 2000 supra) were administered DIDS (10 mg/kg or 50 mg/kg) at weekly intervals, immunized at weeks 1 with dinitrophenol conjugated Keyhole limpet hemocyanin (DNP-KLH) in complete Freund's adjuvant (CFA) to stimulate lymphocyte activation, and boosted after 4 weeks with DNP-KLH (in incomplete Freund's adjuvant, IFA). After a total of 7 weeks (FIG. 25A) mice were euthanized. The group size was n=5. […] For this the mice were weighed weekly and the data represent the average fractional change in body mass for five animals, and error bars denote S.E.M.
After the 7-week trial window, tissues from treated and control animals were fixed, sectioned, and analyzed after hematoxylin and eosin (H&E) staining. […] To determine whether DIDS induced a B-cell specific phenotype related to AID, bone marrow, spleen, and peripheral blood, from DIDS-treated AID+/+ versus AID−/− mice, were analyzed for the presence of B220+CD19+ B-cells, by flow cytometry (FIG. 26). […] In FIG. 26 the endpoint flow cytometry dot plot analysis of bone marrow, spleen, and peripheral blood from AID−/− and AID+/+ mice immunized with DNP-KLH and treated with 0, 10, or 50 mg/kg DIDS is shown. Plots represent the population of cells in the lymphocyte gate stained for expression of B220 (y-axis) and CD19 (x-axis). The numbers in the upper right corner of each plot provide the percentage of B220+/CD19+ cells for each analysis. The progression of B-cell maturation from early/pre-GC to post-GC is indicated below.

The source of these data is patent US10207988B2, “Methods and compositions for treatment of cancer and autoimmune disease” (THE JACKSON LABORATORY, priority 2011, dated 2019).

Each structure is given as a SMILES string.

Regarding `O=S(=O)([O-])c1cc(N=C=S)ccc1/C=C/c1ccc(N=C=S)cc1S(=O)(=O)[O-].[Na+].[Na+]` [DIDS, 4,4′diisothiocyanostilbene-2,2′-disulfonic acid], the “number of viable cells” value in data set [1] is on record as “no significant change in cell viability”; in data set [2] (100 μM DIDS, stimulated with anti-CD40 + IL-4), “decrease of B-cell viability”; in data set [2] (150 μM DIDS, stimulated with anti-CD40 + IL-4, days 1-6) it was “greatly reduces the cell viability from day 3 on”; in data set [2] (not stimulated with anti-CD40+IL-4), “does not influence the cell viability”. In addition, the viable cell counts entry in data set [3] is “significant decline in viable cell counts”. In data set [4], the cytotoxicity at 600 µM is around 25%. In addition, in data set [4], the cytotoxicity at 1000 µM worked out at 87%. For the same compound, the “proportion of phospho-H2AX positive cells” value in data set [5] (AID+/+ in comparison to AID−/− cultures) is reported as “higher percentage of phospho-H2AX positive cells”. Also, in data set [5] (AID+/+ versus AID−/− cells), the “fraction of cells with greater than 2 phospho-H2AX foci” value was “significant higher fraction of cells with greater than 2 foci”. Moreover, in data set [6] (0 mg/kg control and 50 mg/kg cohorts, after 5 weeks), the “weight gain (fractional change in body mass)” value is on record as “independent of DIDS exposure”. In data set [6] (10 mg/kg or 50 mg/kg DIDS at weekly intervals, 7 weeks), the “overt signs of toxicity” value is reported as “No animals in either the control or DIDS-treated groups showed overt signs of toxicity”. Besides, the “overt non-B-cell toxicity” value in data set [6] (AID+/+ or AID−/− cohort) is recorded as “none of the DIDS treated animals”. Further, in data set [6] (AID+/+ or AID−/− mice), the “percentages of splenic B-cells (flow cytometry)” value is “no consistent differences”. For the same compound, the “toxicity / splenic physiology” value in data set [6] (at least up to 50 mg/kg, AID+/+ or AID−/− mice) was “does not induce significant toxicity or general defects in splenic physiology”. In addition, the “reduction in circulating B-lymphoid cells (flow cytometry)” value in data set [6] (both 10 mg/kg and 50 mg/kg DIDS, AID+/+ mice) was 9-11 fold. Moreover, the “reduction in B220+CD19+ B-cells in the bone marrow (flow cytometry)” value in data set [6] (both 10 mg/kg and 50 mg/kg treated AID+/+ mice) is reported as 25%. Besides, the “spleen sections, H&E staining” value in data set [6] (untreated versus DIDS-treated animals, after 7 weeks) is “no gross anatomical defects or differences in germinal center (GC) architecture”.
